Patent publication US20240239818A1, “COMPOUNDS AND COMPOSITIONS COMPRISING FLUOROPHORES FOR USE IN VISUALIZATION AND PURIFICATION OR MANIPULATION” (priority 2022, published 2024)
Entries after “also recorded” stand apart in the source; their conditions may differ.

What was measured:
Type in all cases: cell-based
[1] = biological target: T1, msGFP-HaloTag® fusion localized to the mitochondrial outer membrane (Rhodococcus rhodochrous, UniProt P0A3G2, A155T/A167V/A172T/A224E/C128F/C176G/D78G/E160K/E257K/H272N/K175M/K195N/L47V/L88M/N227D/S58T/T264A/Y273L/Y87F)
T1 construct: expressed in transfected cells; host or cells: HEK293T, calcium phosphate transfection
T1 sequence (P0A3G2 other isoform, or with tags, fused parts or gaps with the stated changes): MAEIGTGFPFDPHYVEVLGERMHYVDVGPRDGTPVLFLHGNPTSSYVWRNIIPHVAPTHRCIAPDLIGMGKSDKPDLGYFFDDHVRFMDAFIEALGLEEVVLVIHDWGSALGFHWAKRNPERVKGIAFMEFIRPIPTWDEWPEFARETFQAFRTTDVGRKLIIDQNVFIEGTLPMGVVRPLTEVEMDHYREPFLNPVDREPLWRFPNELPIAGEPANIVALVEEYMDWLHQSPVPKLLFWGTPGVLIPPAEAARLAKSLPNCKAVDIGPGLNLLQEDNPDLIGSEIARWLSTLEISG
Protocol: HEK293T labeling and fluorescence microscopy. […] For pulse-chase experiments, HEK293T cells were incubated with biotin-HaloTag® ligand (6; #G8281, Promega) at either 100 nM or 10 μM for 1 hour at 37° C. and chased with 100 nM of JANELIA FLUOR® (JF)549-HaloTag® ligand (2HTL). […] For imaging, the coverslips containing HEK293T cells were fixed with 4% paraformaldehyde in PBS at 37° C. for 10 min, washed with PBS (3×), and mounted on glass slides with ProLong Glass Antifade Mountant with NucBlue™ Stain (ThermoFisher; P36981). These cells were imaged using a Zeiss LSM 880 with Airyscan and a plan-apochromatic 63×/1.40 oil objective in Fast Airyscan mode. The same image acquisition settings were used for each trial and condition. Images were then processed with automatic Airyscan deconvolution settings.

[2] = biological target: T2, msGFP-HaloTag® fusion protein (mitochondria) from HEK293T cells (Rhodococcus rhodochrous, UniProt P0A3G2, A155T/A167V/A172T/A224E/C128F/C176G/D78G/E160K/E257K/H272N/K175M/K195N/L47V/L88M/N227D/S58T/T264A/Y273L/Y87F); assay: Affinity capture (streptavidin microbeads) and in-gel fluorescence; details: streptavidin beads
T2 construct: and (4) HaloTag®; expressed in transfected cells; host or cells: HEK293T, calcium phosphate transfection
T2 sequence (P0A3G2 other isoform, or with tags, fused parts or gaps with the stated changes): as above
Protocol: Affinity capture and in-gel fluorescence experiments. Affinity capture pulldown isolation experiments of biotin-labeled HaloTag® fusion proteins were performed on ice-cold isolation buffer (IB) consisting of KCl (0.18 M), ethylene glycol-bis(β-aminoethyl ether)-N,N,N′,N′-tetraacetic acid (EGTA; 1 mM), 3-(N-morpholino)propanesulfonic acid (MOPS; 5 mM); the pH was adjusted to pH=7.35 using KOH(aq).^51 HEK293T cells were scraped with 500 μL IB and homogenized using 12 strokes with a 27G syringe. The resulting homogenate was spun at 4° C. at 1000 g for 3 min to pellet large cellular debris. 50 μL of streptavidin-coated microbeads (Miltenyi, 130-048-101) were added to the supernatant and incubated for 30 min at 4° C. with slow rotation. LS columns (Miltenyi, 130-042-401) were prepared by first washing with 3 mL IB consisting of 2.5% bovine serum albumin (BSA; Jackson ImmunoResearch, 001-000-162) and then with plain IB (3×). Prior to supernatant-microbead mixture being loaded onto LS columns, 5% volume was taken for downstream total fraction calculations (i.e., the “total/20” sample). Columns and samples were kept at 4° C. (cold room) while samples were loaded onto columns and washed with IB (3×); this fraction was collected as designated as “wash”. After the washing step, the column was removed from the QuadroMACs magnet holder (Miltenyi, 130-092-857) and eluted with gentle plunge action into an Eppendorf tube; this was labeled as “eluate”. From here, there were three fractions for each condition: total/20, wash (unbound), and eluate (bound). Since mitochondria were being isolated, these samples were spun at 4° C. and 20,000 g to pellet mitochondria. These samples were then solubilized using the lysis buffer containing 1×PBS, 2% SDS, 1% Triton x-100, 10 mM EDTA, and protease inhibitors (2 mM PMSF, aprotinin, leupeptin, and pepstatin A). Samples were then incubated at 72° C. for 3-4 min after the addition of sample buffer (SB) (DTT, glycerol, and bromophenol blue). For protein detection, 10-20 μL of the sample was subjected to sodium dodecyl sulfate-polyacrylamide gel electrophoresis (SDS-PAGE), using 13% gels. The affinity capture pulldown efficiency was monitored using in-gel fluorescence. The msGFP signal from HaloTag®-TEV-4×GS-msGFP-mito after cell lysis and SDS-PAGE was analyzed, in-gel, using a BioRad Chemidoc MP imager (BioRad) through GFP fluorescence excitation and emission filters. Data were quantified by densitometry using Fiji.^52 Capture efficiency was calculated using equation 3:
[formula] • where Ieluate is the in-gel fluorescence intensity of the bead-bound fraction and Itotal/20 is the in-gel fluorescence intensity of the 5% of crude sample reserved for concentration control (i.e., the “total/20” sample).
Evaluation of biotin-HaloTag® ligand. A live cell permeable biotin reagent was saught for affinity pulldown of HaloTag® fusion proteins, given the broad utility of biotin conjugates in biochemistry and cell biology. To evaluate the performance of biotin-containing HaloTag® ligand, an assay was developed (FIG. 3A) where the HaloTag® is expressed as a fusion with monomeric superfolder green fluorescent protein (msGFP); the construct also included an OMP25 sequence to localize the fusion protein to the outer mitochondrial membrane, allowing straightforward imaging and affinity capture experiments.^28-29 HEK293T cells expressing this fusion protein were incubated with biotin-containing HaloTag® ligands followed by washing and cell lysis. The crude supernatant was incubated with streptavidin-coated magnetic microbeads, applied to a magnetic column, and washed. The magnet was removed, and the bead-bound mitochondria were eluted, lysed, and the resulting solution was analyzed by sodium dodecyl sulfate-polyacrylamide gel electrophoresis (SDS-PAGE) and in-gel fluorescence. To minimize dilution of the sample only the initial bead-bound fraction was collected, leaving some material on the column. […]

[3] = biological target: T3, BRD4 (Homo sapiens, UniProt O60885); assay: BRD4 recruitment to HP1-HaloTag® in live N2a cells (no wash lattice lightsheet microscopy); details: 100 nM
T3 construct: expressed in transfected cells; host or cells: N2a cells, transient transfection
Protocol: (§1) Live cell protein imaging and manipulation using JQ1-rhodamine-HaloTag® ligand. The ability of JQ1 ligands to recruit BET family protein BRD4 to HaloTag® fusion proteins at distinct genomic regions in N2a cells was then tested (FIG. 13A). N2a cells are neural progenitor cells that are frequently utilized to study neuronal differentiation and axonal growth. […] N2a cells were transiently transfected with plasmids encoding the HaloTag® protein fused to the following nuclear proteins: (1) constitutive heterochromatin marker heterochromatin protein 1 (HP1); (2) Cajal body component coilin; and (3) centromere localized histone H3 variant centromere protein A (CENP-A). These three proteins have a very distinct distribution in the nucleus than BRD4 which generally has an euchromatic distribution. Localization of BRD4 to specific gene loci can induce gene expression. […]
(§2) Initially, a side-by-side comparison of JF646 based 17 and JF635 based 18 was performed for recruiting BRD4 to coilin-HaloTag® under a “no wash” lattice lightsheet fluorescence microscopy setup. […] Advantageously, 18 also has lower absorptivity and negligible fluorescence quantum yield before HaloTag® conjugation. “No wash” imaging was performed and the fluorescence from JF635 and sfGFP were monitored. […] The […] HP1-HaloTag® labeled with either JF635-HaloTag® ligand (5HTL) or the JQ1 analog 18 were quantified (FIG. 13J).

[4] = biological target: T3, BRD4; assay: BRD4 recruitment to coilin-HaloTag® in live N2a cells (no wash lattice lightsheet microscopy); details: 100 nM
Protocol: as §1, §2

| SMILES | labeling of HaloTag®-msGFP fusion by pulse-chase (JF549/msGFP ratio after 2HTL chase) ([1]; HEK293T, 10 μM (μM concentrations), 1 h pulse) | labeling of HaloTag®-msGFP fusion by pulse-chase ([1]; HEK293T, nanomolar concentration (100 nM)) | concentration required to achieve cellular labeling ([1]; live cells) [µM] | affinity capture (protein bound to streptavidin) [2] | BRD4 localization to HP1-HaloTag® [3] | BRD4 recruitment to coilin-HaloTag® [4] |
| --- | --- | --- | --- | --- | --- | --- |
| O=C(CCCC[C@@H]1SC[C@@H]2NC(=O)N[C@@H]21)NCCOCCOCCCCCCCl [compound 6, biotin-HaloTag® ligand] | substantially reduced JF549/msGFP ratio; also recorded: labels the HaloTag®-msGFP fusion in living cells; also recorded: substantially labeled the HaloTag® protein fusion | poor labeling | 10 | prevents purification of HaloTag®-expressing mitochondria; also recorded: no appreciable affinity capture | – | – |
| Cc1sc2c(c1C)C(c1ccc(Cl)cc1)=N[C@H](CC(=O)NCCCCOCCOCCNC(=O)C1(F)C[N+](=C3C=CC4=C(c5cc(C(=O)NCCOCCOCCCCCCCl)ccc5C(=O)[O-])c5ccc(N6CC(F)C6)cc5[Si](C)(C)C4=C3)C1)c1nnc(C)n1-2 (stereo partly drawn) [compound 19, (−)-JQ1-JF635-HaloTag® ligand] | – | – | – | – | did not result in BRD4 localization | did not result in BRD4 localization |
